Experimental data: the kinase profiling compilation of Christmann-Franck et al. (2016)

Experiments:
Assay in all cases: radiometric filter-binding kinase assay, Kinase HotSpot
Conditions in all cases: compound 0.5 µM; ATP 10 µM
[1] = target: CAMK2A (human) (UniProt Q9UQM7)
[2] = target: FES (human) (UniProt P07332)
[3] = target: MAPK12 (human) (UniProt P53778)
[4] = target: MAPKAPK3 (human) (UniProt Q16644)
[5] = target: MAPK8 (human) (UniProt P45983)
[6] = target: GRK5 (human) (UniProt P34947)
[7] = target: INSR (human) (UniProt P06213)
[8] = target: PKN1 (human) (UniProt Q16512)
[9] = target: ZAP70 (human) (UniProt P43403)
[10] = target: EPHA5 (human) (UniProt P54756)
[11] = target: INSRR (human) (UniProt P14616)
[12] = target: FGFR1 (human) (UniProt P11362)
[13] = target: TYK2 JH1 catalytic (human) (UniProt P29597)
[14] = target: CAMK2B (human) (UniProt Q13554)
[15] = target: EPHB1 (human) (UniProt P54762)
Chain of EPHB1 (human) (P54762 whole entry, looked up): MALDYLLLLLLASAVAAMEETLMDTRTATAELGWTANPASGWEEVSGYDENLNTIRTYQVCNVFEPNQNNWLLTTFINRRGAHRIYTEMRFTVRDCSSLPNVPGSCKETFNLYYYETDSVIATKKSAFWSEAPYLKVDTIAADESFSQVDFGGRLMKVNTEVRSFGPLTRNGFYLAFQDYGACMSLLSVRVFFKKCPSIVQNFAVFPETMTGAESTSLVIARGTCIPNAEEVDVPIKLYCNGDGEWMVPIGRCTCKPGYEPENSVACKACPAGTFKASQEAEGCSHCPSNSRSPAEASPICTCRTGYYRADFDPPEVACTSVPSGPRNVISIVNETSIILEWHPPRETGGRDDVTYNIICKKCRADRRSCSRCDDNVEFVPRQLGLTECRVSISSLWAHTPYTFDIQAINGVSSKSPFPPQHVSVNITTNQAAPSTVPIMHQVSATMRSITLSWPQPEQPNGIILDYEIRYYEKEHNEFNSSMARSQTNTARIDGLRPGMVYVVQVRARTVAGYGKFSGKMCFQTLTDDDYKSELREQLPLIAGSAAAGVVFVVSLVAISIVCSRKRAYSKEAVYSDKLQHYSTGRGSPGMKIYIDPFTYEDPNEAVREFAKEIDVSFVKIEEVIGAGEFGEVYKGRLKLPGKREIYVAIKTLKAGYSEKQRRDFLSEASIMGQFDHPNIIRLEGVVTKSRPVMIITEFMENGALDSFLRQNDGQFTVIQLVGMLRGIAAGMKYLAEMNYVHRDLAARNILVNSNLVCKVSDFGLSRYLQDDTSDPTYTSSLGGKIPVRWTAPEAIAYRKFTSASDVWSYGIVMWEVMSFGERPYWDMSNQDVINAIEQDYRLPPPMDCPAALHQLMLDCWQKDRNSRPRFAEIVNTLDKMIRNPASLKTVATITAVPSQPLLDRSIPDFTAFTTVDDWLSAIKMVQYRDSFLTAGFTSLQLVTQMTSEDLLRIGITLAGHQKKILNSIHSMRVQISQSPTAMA

[16] = target: FGFR4 (human) (UniProt P22455)
[17] = target: MAP3K8 (human) (UniProt P41279)
[18] = target: TAOK1 (human) (UniProt Q7L7X3)
[19] = target: TAOK3 (human) (UniProt Q9H2K8)
Chain of TAOK3 (human) (Q9H2K8 whole entry, looked up): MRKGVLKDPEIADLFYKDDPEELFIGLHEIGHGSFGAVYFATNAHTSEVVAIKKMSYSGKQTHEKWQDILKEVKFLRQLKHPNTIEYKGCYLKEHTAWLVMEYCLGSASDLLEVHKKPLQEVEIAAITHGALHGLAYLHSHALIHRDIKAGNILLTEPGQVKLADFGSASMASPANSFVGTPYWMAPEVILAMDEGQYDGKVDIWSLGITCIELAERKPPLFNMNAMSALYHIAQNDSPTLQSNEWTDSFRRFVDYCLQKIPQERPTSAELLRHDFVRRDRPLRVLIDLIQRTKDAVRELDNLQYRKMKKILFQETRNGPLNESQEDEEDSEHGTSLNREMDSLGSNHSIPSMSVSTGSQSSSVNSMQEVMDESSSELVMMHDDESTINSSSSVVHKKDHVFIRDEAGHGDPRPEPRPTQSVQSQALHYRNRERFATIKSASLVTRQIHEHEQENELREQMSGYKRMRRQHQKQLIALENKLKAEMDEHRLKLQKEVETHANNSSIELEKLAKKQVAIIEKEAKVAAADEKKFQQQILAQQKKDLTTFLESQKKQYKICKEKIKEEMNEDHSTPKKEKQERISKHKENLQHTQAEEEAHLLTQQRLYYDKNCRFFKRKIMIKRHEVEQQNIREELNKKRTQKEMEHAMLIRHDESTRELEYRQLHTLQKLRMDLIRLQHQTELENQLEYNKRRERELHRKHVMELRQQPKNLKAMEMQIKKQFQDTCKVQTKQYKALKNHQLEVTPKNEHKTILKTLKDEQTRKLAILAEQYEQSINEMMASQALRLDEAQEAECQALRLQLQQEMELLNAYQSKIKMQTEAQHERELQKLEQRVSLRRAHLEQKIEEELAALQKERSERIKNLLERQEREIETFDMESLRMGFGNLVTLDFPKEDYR

[20] = target: CSNK2A1 (human) (UniProt P68400)
Chain of CSNK2A1 (human) (P68400 whole entry, looked up): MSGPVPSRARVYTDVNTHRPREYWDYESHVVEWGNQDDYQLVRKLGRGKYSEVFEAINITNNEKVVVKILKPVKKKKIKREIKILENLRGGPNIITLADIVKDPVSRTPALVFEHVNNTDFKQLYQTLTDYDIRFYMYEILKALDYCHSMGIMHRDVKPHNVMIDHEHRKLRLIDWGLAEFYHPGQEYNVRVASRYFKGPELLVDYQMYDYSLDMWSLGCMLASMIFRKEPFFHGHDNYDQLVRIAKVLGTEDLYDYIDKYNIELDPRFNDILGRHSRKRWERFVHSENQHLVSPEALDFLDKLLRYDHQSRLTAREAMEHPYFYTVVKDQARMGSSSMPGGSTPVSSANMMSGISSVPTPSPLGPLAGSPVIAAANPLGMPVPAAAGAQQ

[21] = target: RPS6KA4 KD2 (human) (UniProt O75676)
[22] = target: CAMK1 (human) (UniProt Q14012)
[23] = target: CAMK1D (human) (UniProt Q8IU85)
[24] = target: CDK1 CCNB1 (human) (UniProt P06493+P14635)
[25] = target: IGF1R (human) (UniProt P08069)
[26] = target: CSNK1G2 (human) (UniProt P78368)
[27] = target: TNK2 (human) (UniProt Q07912)
[28] = target: WNK3 (human) (UniProt Q9BYP7)
Chain of WNK3 (human) (Q9BYP7 whole entry, looked up): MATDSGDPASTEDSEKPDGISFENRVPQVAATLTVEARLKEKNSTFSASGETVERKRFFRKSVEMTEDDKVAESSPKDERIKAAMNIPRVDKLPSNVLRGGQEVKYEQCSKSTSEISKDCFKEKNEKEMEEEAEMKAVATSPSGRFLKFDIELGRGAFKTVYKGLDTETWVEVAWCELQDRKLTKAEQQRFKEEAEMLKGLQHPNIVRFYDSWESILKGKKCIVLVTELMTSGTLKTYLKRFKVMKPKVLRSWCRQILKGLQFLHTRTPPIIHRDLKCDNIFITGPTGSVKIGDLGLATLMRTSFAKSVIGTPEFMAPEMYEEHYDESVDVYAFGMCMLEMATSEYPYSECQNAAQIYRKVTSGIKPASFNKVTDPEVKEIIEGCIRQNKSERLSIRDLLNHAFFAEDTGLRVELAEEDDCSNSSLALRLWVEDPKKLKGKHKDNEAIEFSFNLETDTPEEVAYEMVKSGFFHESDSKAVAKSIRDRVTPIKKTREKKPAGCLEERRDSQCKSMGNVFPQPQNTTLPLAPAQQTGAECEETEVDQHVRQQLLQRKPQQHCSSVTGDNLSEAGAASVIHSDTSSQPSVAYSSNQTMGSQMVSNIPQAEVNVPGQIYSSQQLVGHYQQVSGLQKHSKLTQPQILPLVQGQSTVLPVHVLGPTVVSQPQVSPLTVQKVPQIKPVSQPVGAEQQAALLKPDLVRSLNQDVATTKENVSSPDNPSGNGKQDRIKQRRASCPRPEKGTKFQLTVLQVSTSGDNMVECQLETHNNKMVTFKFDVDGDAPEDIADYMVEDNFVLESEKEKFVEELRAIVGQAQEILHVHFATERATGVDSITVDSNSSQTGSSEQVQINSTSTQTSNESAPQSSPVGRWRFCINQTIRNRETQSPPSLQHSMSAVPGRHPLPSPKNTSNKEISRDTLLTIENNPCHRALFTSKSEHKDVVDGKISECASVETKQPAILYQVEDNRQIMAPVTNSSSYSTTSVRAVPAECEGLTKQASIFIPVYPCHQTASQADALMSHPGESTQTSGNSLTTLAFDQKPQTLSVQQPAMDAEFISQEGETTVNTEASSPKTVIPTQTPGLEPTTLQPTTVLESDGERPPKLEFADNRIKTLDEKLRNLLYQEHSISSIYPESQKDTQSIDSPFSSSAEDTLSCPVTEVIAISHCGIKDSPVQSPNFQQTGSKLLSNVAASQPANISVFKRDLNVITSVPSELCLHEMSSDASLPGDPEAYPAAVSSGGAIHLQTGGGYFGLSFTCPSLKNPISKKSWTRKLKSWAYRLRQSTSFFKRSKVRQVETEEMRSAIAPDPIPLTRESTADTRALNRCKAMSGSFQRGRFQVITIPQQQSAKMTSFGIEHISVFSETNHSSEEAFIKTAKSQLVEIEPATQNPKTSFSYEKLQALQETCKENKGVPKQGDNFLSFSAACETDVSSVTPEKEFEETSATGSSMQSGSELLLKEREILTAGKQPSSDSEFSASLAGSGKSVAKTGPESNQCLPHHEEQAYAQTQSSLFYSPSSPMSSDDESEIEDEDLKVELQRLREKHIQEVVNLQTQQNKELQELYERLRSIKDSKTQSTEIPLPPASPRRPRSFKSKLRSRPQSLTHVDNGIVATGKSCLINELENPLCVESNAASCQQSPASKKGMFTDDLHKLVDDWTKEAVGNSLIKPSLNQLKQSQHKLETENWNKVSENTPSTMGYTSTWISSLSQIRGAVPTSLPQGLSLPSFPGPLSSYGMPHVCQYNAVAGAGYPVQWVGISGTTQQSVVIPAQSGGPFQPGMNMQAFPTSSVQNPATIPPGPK

[29] = target: PIM3 (human) (UniProt Q86V86)
[30] = target: PRKCG (human) (UniProt P05129)
[31] = target: EPHA7 (human) (UniProt Q15375)
[32] = target: SRPK3 (human) (UniProt Q9UPE1)
[33] = target: CDK2 CCNA2 (human) (UniProt P24941+P20248)
[34] = target: PAK2 (human) (UniProt Q13177)
[35] = target: MATK (human) (UniProt P42679)
Chain of MATK (human) (P42679 whole entry, looked up): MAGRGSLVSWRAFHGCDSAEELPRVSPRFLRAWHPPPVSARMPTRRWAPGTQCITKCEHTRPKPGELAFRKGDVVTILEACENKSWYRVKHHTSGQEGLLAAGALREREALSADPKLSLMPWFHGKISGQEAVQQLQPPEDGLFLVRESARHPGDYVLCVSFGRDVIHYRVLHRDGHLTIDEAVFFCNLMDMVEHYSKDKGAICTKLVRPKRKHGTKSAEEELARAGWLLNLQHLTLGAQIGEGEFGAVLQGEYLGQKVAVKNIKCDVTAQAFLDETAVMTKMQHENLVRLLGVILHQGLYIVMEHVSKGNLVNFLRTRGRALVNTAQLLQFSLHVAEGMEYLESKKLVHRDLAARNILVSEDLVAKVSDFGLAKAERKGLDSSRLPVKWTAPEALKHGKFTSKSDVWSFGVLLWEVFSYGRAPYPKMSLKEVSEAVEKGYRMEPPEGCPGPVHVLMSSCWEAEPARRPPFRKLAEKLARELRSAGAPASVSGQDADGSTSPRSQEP

[36] = target: CSNK1E (human) (UniProt P49674)
Chain of CSNK1E (human) (P49674 whole entry, looked up): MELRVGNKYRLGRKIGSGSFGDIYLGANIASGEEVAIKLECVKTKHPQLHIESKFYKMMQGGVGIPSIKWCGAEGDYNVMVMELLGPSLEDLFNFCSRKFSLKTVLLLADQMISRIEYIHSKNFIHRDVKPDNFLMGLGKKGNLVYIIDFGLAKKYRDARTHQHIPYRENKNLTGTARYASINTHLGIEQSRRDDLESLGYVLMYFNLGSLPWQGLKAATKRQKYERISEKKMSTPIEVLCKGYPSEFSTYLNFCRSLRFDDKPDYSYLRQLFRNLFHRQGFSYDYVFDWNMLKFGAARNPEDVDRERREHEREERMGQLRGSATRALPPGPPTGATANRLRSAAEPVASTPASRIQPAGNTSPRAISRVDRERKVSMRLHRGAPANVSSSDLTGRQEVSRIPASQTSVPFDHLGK

[37] = target: STK11 (human) (UniProt Q15831)
[38] = target: CDC42BPA (human) (UniProt Q5VT25)
[39] = target: PLK2 (human) (UniProt Q9NYY3)
[40] = target: MAP3K10 (human) (UniProt Q02779)
[41] = target: EPHB4 (human) (UniProt P54760)
[42] = target: AKT1 (human) (UniProt P31749)

Q: CCc1nc(-c2ccc(OC)cc2)[nH]c1-c1ccncc1 was tested. Which residual activity [1] did it give?
A: 105%

Q: What about the residual activity [2] of the same compound?
A: 100%

Q: And the residual activity [3]?
A: 104%

Q: And the residual activity [4]?
A: 102%

Q: And the residual activity [5]?
A: 98.9%

Q: What about the residual activity [6] of the same compound?
A: 107%

Q: And the residual activity [7]?
A: 85%

Q: And the residual activity [8]?
A: 97%

Q: And the residual activity [9]?
A: 101%

Q: And the residual activity [10]?
A: 100%

Q: And the residual activity [11]?
A: 102%

Q: And the residual activity [12]?
A: 88.1%

Q: And the residual activity [13]?
A: 106%

Q: What about the residual activity [14] of the same compound?
A: 97.1%

Q: And the residual activity [15]?
A: 104%

Q: What about the residual activity [16] of the same compound?
A: 95.9%

Q: And the residual activity [17]?
A: 95%

Q: And the residual activity [18]?
A: 104%

Q: What about the residual activity [19] of the same compound?
A: 107%

Q: And the residual activity [20]?
A: 95.3%

Q: What about the residual activity [21] of the same compound?
A: 98.6%

Q: What about the residual activity [22] of the same compound?
A: 108%

Q: What about the residual activity [23] of the same compound?
A: 104%

Q: What about the residual activity [24] of the same compound?
A: 102%

Q: What about the residual activity [25] of the same compound?
A: 99.5%

Q: And the residual activity [26]?
A: 97.7%

Q: And the residual activity [27]?
A: 100%

Q: What about the residual activity [28] of the same compound?
A: 97.3%

Q: What about the residual activity [29] of the same compound?
A: 112%

Q: What about the residual activity [30] of the same compound?
A: 95.5%

Q: And the residual activity [31]?
A: 91.6%

Q: What about the residual activity [32] of the same compound?
A: 102%

Q: And the residual activity [33]?
A: 99.5%

Q: What about the residual activity [34] of the same compound?
A: 90.7%

Q: What about the residual activity [35] of the same compound?
A: 94.1%

Q: What about the residual activity [36] of the same compound?
A: 95%

Q: And the residual activity [37]?
A: 89.5%

Q: And the residual activity [38]?
A: 96.3%

Q: What about the residual activity [39] of the same compound?
A: 101%

Q: What about the residual activity [40] of the same compound?
A: 102%

Q: What about the residual activity [41] of the same compound?
A: 90.3%

Q: What does the source list for Nc1ncnc2c1cnn2-c1ccccc1?
A: residual activity [1]: 105%; residual activity [2]: 99.7%; residual activity [3]: 90.6%; residual activity [4]: 96.6%; residual activity [5]: 87.1%; residual activity [6]: 104%; residual activity [7]: 103%; residual activity [8]: 98.6%; residual activity [9]: 91.5%; residual activity [10]: 95.6%; residual activity [11]: 106%; residual activity [12]: 93%; residual activity [13]: 86.7%; residual activity [14]: 97.8%; residual activity [15]: 97.5%; residual activity [16]: 94.8%; residual activity [17]: 98.6%; residual activity [18]: 89.5%; residual activity [19]: 89.1%; residual activity [20]: 94.4%; residual activity [21]: 106%; residual activity [22]: 97.5%; residual activity [23]: 95.6%; residual activity [25]: 96.4%; residual activity [26]: 95.1%; residual activity [27]: 90.3%; residual activity [28]: 97.2%; residual activity [29]: 91.4%; residual activity [30]: 103%; residual activity [31]: 99.2%; residual activity [32]: 96.4%; residual activity [33]: 108%; residual activity [34]: 98.1%; residual activity [35]: 89.9%; residual activity [36]: 81.5%; residual activity [37]: 93.9%; residual activity [38]: 90.2%; residual activity [39]: 99.2%; residual activity [40]: 88.6%; residual activity [41]: 103%; residual activity [42]: 103%
